{"source": "ChEMBL document CHEMBL4007467", "about": "“Effects of 6-paradol, an unsaturated ketone from gingers, on cytochrome P450-mediated drug metabolism” (Bioorg Med Chem Lett, 2017)", "type_in_all_cases": "ADME", "key": {"CYP2C8 [1]": {"biological_target": "T1, CYP2C8 (Homo sapiens, UniProt P10632)", "T1 sequence (P10632 whole entry)": "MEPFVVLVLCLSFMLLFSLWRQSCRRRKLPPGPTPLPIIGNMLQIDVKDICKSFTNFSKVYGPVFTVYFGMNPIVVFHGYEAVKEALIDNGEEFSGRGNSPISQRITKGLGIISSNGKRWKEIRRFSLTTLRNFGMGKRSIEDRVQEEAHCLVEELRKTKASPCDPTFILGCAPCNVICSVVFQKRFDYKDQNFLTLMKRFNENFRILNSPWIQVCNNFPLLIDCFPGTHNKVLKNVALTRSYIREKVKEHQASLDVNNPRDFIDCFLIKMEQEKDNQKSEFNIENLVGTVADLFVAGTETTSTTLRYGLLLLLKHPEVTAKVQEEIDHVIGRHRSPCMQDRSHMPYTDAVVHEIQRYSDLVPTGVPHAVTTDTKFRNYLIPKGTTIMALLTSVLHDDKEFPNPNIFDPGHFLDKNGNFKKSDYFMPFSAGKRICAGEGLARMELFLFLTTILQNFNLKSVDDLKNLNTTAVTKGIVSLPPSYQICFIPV", "assay": "Inhibition of CYP2C8 in human liver microsomes assessed as enzyme-mediated metabolite formation at 30 uM using paclitaxel as substrate incubated for 5 mins followed by NADPH addition measured after 30 mins by LC-MS/MS analysis relative to control", "set-up": "scale not given: the % may be the effect or the level left", "details": "probe paclitaxel, read-out: Activity"}, "CYP2B6 [2]": {"biological_target": "T2, CYP2B6 (Homo sapiens, UniProt P20813)", "T2 sequence (P20813 whole entry)": "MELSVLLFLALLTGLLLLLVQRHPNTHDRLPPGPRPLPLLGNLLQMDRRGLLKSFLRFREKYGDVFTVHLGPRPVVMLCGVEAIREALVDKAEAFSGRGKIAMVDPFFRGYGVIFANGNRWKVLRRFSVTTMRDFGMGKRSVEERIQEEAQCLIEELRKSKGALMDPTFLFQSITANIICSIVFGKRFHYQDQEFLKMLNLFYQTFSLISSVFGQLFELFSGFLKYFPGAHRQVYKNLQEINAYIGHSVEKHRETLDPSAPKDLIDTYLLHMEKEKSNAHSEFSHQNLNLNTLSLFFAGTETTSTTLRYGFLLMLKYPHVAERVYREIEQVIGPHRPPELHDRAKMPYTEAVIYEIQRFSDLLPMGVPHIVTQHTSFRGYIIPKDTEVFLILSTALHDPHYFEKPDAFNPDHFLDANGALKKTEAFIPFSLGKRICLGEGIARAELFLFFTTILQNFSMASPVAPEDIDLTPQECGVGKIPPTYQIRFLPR", "assay": "Inhibition of CYP2B6 in human liver microsomes assessed as enzyme-mediated metabolite formation at 30 uM using bupropion as substrate preincubated for 20 mins followed by substrate addition measured after 30 mins in presence of NADPH by LC-MS/MS analysis relative to control", "set-up": "scale not given: the % may be the effect or the level left", "details": "probe bupropion, read-out: Activity"}, "Cytochrome P450 2C19": {"biological_target": "Cytochrome P450 2C19 (Homo sapiens, UniProt P33261)", "sequence (P33261 whole entry)": "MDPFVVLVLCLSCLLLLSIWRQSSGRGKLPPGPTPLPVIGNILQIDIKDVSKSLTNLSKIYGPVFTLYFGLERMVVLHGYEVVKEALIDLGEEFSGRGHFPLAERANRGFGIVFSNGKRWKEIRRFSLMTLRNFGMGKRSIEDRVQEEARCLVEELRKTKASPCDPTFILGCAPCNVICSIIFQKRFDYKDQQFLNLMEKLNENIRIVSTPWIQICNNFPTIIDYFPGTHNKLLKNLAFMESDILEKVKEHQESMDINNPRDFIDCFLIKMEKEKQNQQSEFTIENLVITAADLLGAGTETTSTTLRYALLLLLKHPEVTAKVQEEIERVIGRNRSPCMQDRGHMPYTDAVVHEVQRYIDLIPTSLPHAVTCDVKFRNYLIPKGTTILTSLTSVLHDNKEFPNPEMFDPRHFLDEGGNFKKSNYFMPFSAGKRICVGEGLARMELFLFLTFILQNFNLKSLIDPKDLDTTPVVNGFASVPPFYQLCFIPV", "assay": "Inhibition of CYP2C19 in human liver microsomes using (S)-mephenytoin as substrate preincubated for 20 mins followed by substrate addition measured after 30 mins in presence of NADPH by LC-MS/MS analysis"}, "CYP3A4 [3]": {"biological_target": "T3, CYP3A4 (Homo sapiens, UniProt P08684)", "T3 sequence (P08684 whole entry)": "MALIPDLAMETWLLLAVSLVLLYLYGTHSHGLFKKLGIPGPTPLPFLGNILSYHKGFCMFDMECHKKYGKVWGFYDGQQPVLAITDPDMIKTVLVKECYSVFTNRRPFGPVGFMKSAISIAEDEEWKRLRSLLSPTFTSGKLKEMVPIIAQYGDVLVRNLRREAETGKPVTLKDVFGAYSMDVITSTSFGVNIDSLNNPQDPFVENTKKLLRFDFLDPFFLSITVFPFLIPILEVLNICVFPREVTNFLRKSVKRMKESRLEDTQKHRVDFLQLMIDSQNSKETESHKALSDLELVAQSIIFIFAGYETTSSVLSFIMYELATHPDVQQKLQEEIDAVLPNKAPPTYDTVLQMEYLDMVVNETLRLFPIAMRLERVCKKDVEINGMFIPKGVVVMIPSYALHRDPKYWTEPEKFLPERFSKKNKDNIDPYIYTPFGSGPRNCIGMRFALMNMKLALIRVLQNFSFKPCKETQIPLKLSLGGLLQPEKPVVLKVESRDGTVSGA", "assay": "Inhibition of CYP3A4 in human liver microsomes assessed as enzyme-mediated metabolite formation at 30 uM using testosterone as substrate incubated for 5 mins followed by NADPH addition measured after 30 mins by LC-MS/MS analysis relative to control", "set-up": "scale not given: the % may be the effect or the level left", "details": "probe testosterone, read-out: Activity"}, "CYP2B6 [4]": {"biological_target": "T2, CYP2B6", "assay": "Inhibition of CYP2B6 in human liver microsomes assessed as enzyme-mediated metabolite formation at 3 uM using bupropion as substrate preincubated for 20 mins followed by substrate addition measured after 30 mins in presence of NADPH by LC-MS/MS analysis relative to control", "set-up": "scale not given: the % may be the effect or the level left", "details": "probe bupropion, read-out: Activity"}, "CYP3A4 [5]": {"biological_target": "T3, CYP3A4", "assay": "Inhibition of CYP3A4 in human liver microsomes assessed as enzyme-mediated metabolite formation at 1 uM using testosterone as substrate incubated for 5 mins followed by NADPH addition measured after 30 mins by LC-MS/MS analysis relative to control", "set-up": "scale not given: the % may be the effect or the level left", "details": "probe testosterone, read-out: Activity"}, "Cytochrome P450 2C9": {"biological_target": "Cytochrome P450 2C9 (Homo sapiens, UniProt P11712)", "sequence (P11712 whole entry)": "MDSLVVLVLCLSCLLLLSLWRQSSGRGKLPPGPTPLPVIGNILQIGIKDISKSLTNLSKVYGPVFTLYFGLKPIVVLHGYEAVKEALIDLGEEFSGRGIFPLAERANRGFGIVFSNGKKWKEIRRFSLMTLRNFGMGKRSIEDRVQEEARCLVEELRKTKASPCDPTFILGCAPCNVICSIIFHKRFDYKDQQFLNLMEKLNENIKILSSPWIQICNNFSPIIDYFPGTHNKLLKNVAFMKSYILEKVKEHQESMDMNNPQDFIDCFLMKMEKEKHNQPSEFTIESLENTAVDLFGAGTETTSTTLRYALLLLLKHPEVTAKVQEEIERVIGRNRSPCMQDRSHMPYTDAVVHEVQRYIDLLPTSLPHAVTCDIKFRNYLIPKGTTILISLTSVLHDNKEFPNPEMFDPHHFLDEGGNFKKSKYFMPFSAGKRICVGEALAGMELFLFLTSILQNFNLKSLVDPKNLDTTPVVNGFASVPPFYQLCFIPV", "assay": "Inhibition of CYP2C9 in human liver microsomes using diclofenac as substrate preincubated for 20 mins followed by substrate addition measured after 30 mins in presence of NADPH by LC-MS/MS analysis"}, "CYP2C9": {"biological_target": "CYP2C9 (Homo sapiens, UniProt P11712)", "sequence (P11712 whole entry)": "as above", "assay": "Inhibition of CYP2C9 in human liver microsomes assessed as enzyme-mediated metabolite formation at 0.3 uM using diclofenac as substrate incubated for 5 mins followed by NADPH addition measured after 30 mins by LC-MS/MS analysis relative to control", "set-up": "scale not given: the % may be the effect or the level left", "details": "probe diclofenac, read-out: Activity"}, "CYP3A4 [6]": {"biological_target": "T3, CYP3A4", "assay": "Inhibition of CYP3A4 in human liver microsomes assessed as enzyme-mediated metabolite formation at 1 uM using midazolam as substrate preincubated for 20 mins followed by substrate addition measured after 30 mins in presence of NADPH by LC-MS/MS analysis relative to control", "set-up": "scale not given: the % may be the effect or the level left", "details": "probe midazolam, read-out: Activity"}, "CYP2A6": {"biological_target": "T4, CYP2A6 (Homo sapiens, UniProt P11509)", "T4 sequence (P11509 whole entry)": "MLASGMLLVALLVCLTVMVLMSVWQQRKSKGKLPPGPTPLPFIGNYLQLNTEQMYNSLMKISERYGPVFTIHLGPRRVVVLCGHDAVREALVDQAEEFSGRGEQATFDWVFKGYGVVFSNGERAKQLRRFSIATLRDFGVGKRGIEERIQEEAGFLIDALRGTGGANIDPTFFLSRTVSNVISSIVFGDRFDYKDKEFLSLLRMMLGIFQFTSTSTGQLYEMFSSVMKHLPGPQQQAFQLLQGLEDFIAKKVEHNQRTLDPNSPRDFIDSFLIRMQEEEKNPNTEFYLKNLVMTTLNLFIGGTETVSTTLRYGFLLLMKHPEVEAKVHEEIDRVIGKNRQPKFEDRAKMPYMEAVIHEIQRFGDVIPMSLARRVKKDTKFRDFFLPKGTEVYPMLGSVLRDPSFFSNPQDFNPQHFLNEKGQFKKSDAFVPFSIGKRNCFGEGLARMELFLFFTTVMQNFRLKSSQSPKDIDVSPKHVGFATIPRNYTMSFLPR", "assay": "Inhibition of CYP2A6 in human liver microsomes assessed as enzyme-mediated metabolite formation at 0.1 uM using coumarin as substrate incubated for 5 mins followed by NADPH addition measured after 30 mins by LC-MS/MS analysis relative to control", "set-up": "scale not given: the % may be the effect or the level left", "details": "probe coumarin, read-out: Activity"}, "CYP2C8 [7]": {"biological_target": "T1, CYP2C8", "assay": "Inhibition of CYP2C8 in human liver microsomes assessed as enzyme-mediated metabolite formation at 0.3 uM using paclitaxel as substrate preincubated for 20 mins followed by substrate addition measured after 30 mins in presence of NADPH by LC-MS/MS analysis relative to control", "set-up": "scale not given: the % may be the effect or the level left", "details": "probe paclitaxel, read-out: Activity"}, "Cytochrome P450 2B6": {"biological_target": "T5, Cytochrome P450 2B6 (Homo sapiens, UniProt P20813)", "T5 sequence (P20813 whole entry)": "T2 sequence (P20813 whole entry)", "assay": "Inhibition of human CYP2B6 using bupropion as substrate incubated for 5 mins followed by NADPH addition measured after 30 mins by LC-MS/MS analysis"}, "Cytochrome P450 2C8": {"biological_target": "T6, Cytochrome P450 2C8 (Homo sapiens, UniProt P10632)", "T6 sequence (P10632 whole entry)": "T1 sequence (P10632 whole entry)", "assay": "Inhibition of CYP2C8 in human liver microsomes using paclitaxel as substrate preincubated for 20 mins followed by substrate addition measured after 30 mins in presence of NADPH by LC-MS/MS analysis"}}, "note": "pIC50: −log10 of the molar value.", "data": [{"smiles": "CCCCCCCC(=O)CCc1ccc(O)c(OC)c1", "values": [{"measurement": "activity at 0.5 h, 30 µM", "setting": "CYP2C8 [1]", "result": 35.5, "unit": "%"}, {"measurement": "activity at 0.5 h, 30 µM", "setting": "CYP2B6 [2]", "result": 45.5, "unit": "%"}, {"measurement": "pIC50", "setting": "Cytochrome P450 2C19", "result": 5.44}, {"measurement": "activity at 0.5 h, 30 µM", "setting": "CYP3A4 [3]", "result": 48.6, "unit": "%"}, {"measurement": "activity at 0.5 h, 3 µM", "setting": "CYP2B6 [4]", "result": 77.3, "unit": "%"}, {"measurement": "activity at 0.5 h, 1 µM", "setting": "CYP3A4 [5]", "result": 65.6, "unit": "%"}, {"measurement": "pIC50", "setting": "Cytochrome P450 2C9", "result": 5.00}, {"measurement": "activity at 0.5 h, 0.3 µM", "setting": "CYP2C9", "result": 93.6, "unit": "%"}, {"measurement": "activity at 0.5 h, 1 µM", "setting": "CYP3A4 [6]", "result": 91.5, "unit": "%"}, {"measurement": "activity at 0.5 h, 0.1 µM", "setting": "CYP2A6", "result": 103, "unit": "%"}, {"measurement": "activity at 0.5 h, 0.3 µM", "setting": "CYP2C8 [7]", "result": 77.2, "unit": "%"}, {"measurement": "pIC50", "setting": "Cytochrome P450 2B6", "result": 5.21}, {"measurement": "inhibition (INH)", "setting": "Cytochrome P450 2B6; human, 0.5 h", "result": "Dose-dependent effect"}, {"measurement": "pIC50", "setting": "Cytochrome P450 2C8", "result": 5.08}]}]}
